Values of other authors in patent publication US20170360735A1, “INGESTIBLE EMULSION MATRIX FOR DELIVERY OF CREATINE” (DreamPak, priority 2016, published 2017).
Where two headings read alike, the source gives them in different places.

Assays:
[1] = ingestion of 20-30 g creatine per day for several days
[2] = oral, estimated

N-(aminoiminomethyl)-N-methylglycine [creatine]
increase in human skeletal muscle creatine content [1]: greater than 20%
absorption rate from the gastrointestinal (GI) tract [2]: 1-14%
creatine dissolved in water (at 70° F.): about 1.4%
creatine dissolved in water (at 120° F.): about 4.5%
